According to article PMC7553701 (Toxicological Sciences, 2020):
≈ marks a conversion by molar mass, not a printed value. Entries after “also recorded” stand apart in the source; their conditions may differ. Where two headings read alike, the source gives them in different places.

Key:
rat liver = experiment: BA-LRA score calculated from Open TG-GATEs Affymetrix GeneChip data; format: in vivo; settings: 600 mkd, 24 h, Affymetrix platform; ref Igarashi et al., 2015
[1] = tested on: NRF2/Keap1 and NRF1 coregulated gene network in rat liver; settings: for BA-LRA score / BA-LRA outcome, day 1 single dose study: rat; for rat BA-LRA result: in vivo rat liver, threshold 0.22; for BA-LRA outcome, day 1 single dose study: day 1 single dose sample collection; for maximum daily dose (boundary) predicted from BA-LRA score: clinical daily dose
NRF2 = experiment: HEK cell CYP450-dependent versus -independent NRF2 stabilization assay; format: cell-based, human; settings: for NRF2 protein level in noninduced cells: HEK293/CYP cells without Dox; for NRF2 protein level in cells expressing other CYP isoforms: HEK293 cells expressing the other 7 CYP isoforms; for NRF2 activation with and without CYP450 expression: HEK-CYP cell lines, [− Dox] and [+ Dox]; for NRF2 activation: HEK Cyp3A4 and parental cell lines, up to 90 µM
human hepatocytes = experiment: Covalent protein binding; format: in vitro ADME; settings: radiolabeled drug
rat [2] = experiment: Histopathology, clinical chemistry and tolerability in short-term rat studies; format: in vivo; settings: oral gavage, high dose 500–750 mkd
[3] = Clinical studies: liver safety and exposure; settings: human, in vivo, 900 mg
Cyp3A4 = Cyp3A4 (Homo sapiens, UniProt P08684, DEL224-224/T224I/V225I); experiment: Cyp3A4 degradation in HEK Cyp3A4 cell line; format: cell-based; settings: up to 90 µM
HepG2 = settings: 24 h, HepG2 glucose-galactose shift; ref Xu et al., 2019; cited from earlier work
rat [4] = experiment: 6-month rat toxicology study; format: in vivo; settings: 6 months, highest dose tested
patients = settings: ref Hargreaves and Olesen, 2019, cited from earlier work
NHP = experiment: 9-month NHP toxicology study; format: in vivo; settings: 9 months, highest dose tested
human HepatoPac [5] = experiment: Urea synthesis in human HepatoPac cultures; format: cell-based; settings: 9 days of exposure
Biliary excretion = format: cell-based; settings: human HepatoPac cultures, plasma or biological fluid
Mouse = experiment: 6-month mouse toxicology study; format: in vivo; settings: 6 months, highest dose tested
rat HepatoPac = experiment: Urea synthesis in rat HepatoPac cultures; format: cell-based; settings: 9 days
human HepatoPac [6] = settings: ref Hafey et al., unpublished data, cited from earlier work
Dog = experiment: 1-month dog toxicology study; format: in vivo; settings: high dose with excessive body weight loss
BSEP = settings: siRNA BSEP KD rat; ref Li et al., 2019; cited from earlier work
human HepatoPac [7] = experiment: In vitro BA-LRA in human HepatoPac; format: cell-based; settings: at 50 µM
[8] = tested on: rat hepatocyte micropatterned coculture model (HepatoPac); experiment: In vitro BA-LRA in rat HepatoPac; format: cell-based; settings: 9 days, at 50 µM
[9] = tested on: bile salt export pump (BSEP); experiment: Bile salt export pump; format: biochemical; settings: modeling a dose of 280 mg; ref Hafey et al., unpublished data

## CC(=O)Nc1ccc(O)cc1 [Acetaminophen]
Rat liver
  BA-LRA score calculated from TG-GATEs data: 0.32
[1]; at 24 h (Figs. 2 and 3)
  BA-LRA score: 0.54
NRF2; 6 h
  NRF2 protein level in noninduced cells: not apparent
NRF2
  NRF2 protein level in cells expressing other CYP isoforms: not apparent

## CC1(C)CC[C@]2(C(=O)O)CC[C@]3(C)[C@H](C(=O)C=C4[C@@]5(C)C=C(C#N)C(=O)C(C)(C)[C@@H]5CC[C@]43C)[C@@H]2C1 [Bardoxolone]
NRF2
  NRF2 activation with and without CYP450 expression: induced NRF2 activation in a similar fashion under both [− Dox] and [+ Dox] conditions

## CN/C(=N/CCSCc1nc[nH]c1C)NC#N [Cimetidine]
Human hepatocytes
  covalent protein binding in human hepatocytes: high CPB

## Clc1ccccc1C(c1ccccc1)(c1ccccc1)n1ccnc1 [Clotrimazole]
Rat [2]
  tolerability of high repeat daily doses: not tolerated

## CN1CCN(C2=Nc3cc(Cl)ccc3Nc3ccccc32)CC1 [Clozapine]
[1]
  rat BA-LRA result: significant BA-LRA signal
  BA-LRA outcome, day 1 single dose study: BA-LRA positive

## O=C(CN1C(=O)C2(CCCC2)NC[C@H]1c1cc(F)cc(F)c1)Nc1ccc2c(c1)C[C@@]1(C2)C(=O)Nc2ncccc21 [MK-3207]
[3]
  AUC: 60 µM·h
Cyp3A4
  Cyp3A4 degradation: clear dose-dependent effect on Cyp3A4 degradation
HepG2
  mitochondrial toxicity: No evidence for mitochondrial toxicity
Rat [4]
  Liver Findings: No liver safety signal at Highest Dose tested
patients; Phase 2, 2 weeks, daily doses ≤ 100 mg (2/197)
  incidence of subjects with ALT rises > 3-fold ULN: 1%
patients; among the 5 patients dosed above 500 mg daily
  patients with > 20-fold ALT rises: 3
NHP
  Liver Findings: No liver safety signal at Highest Dose tested
[1]
  maximum daily dose (boundary) predicted from BA-LRA score: 300 mg
[1]; 600 mkd × 4-day, median signature score
  BA-LRA score: 0.34
Human HepatoPac [5]
  urea synthesis: lack of urea synthesis inhibition
NRF2
  NRF2 activation: no CYP-dependent effect on NRF2 activation
Biliary excretion
  solubility: 50 µM (≈ 27.9 µg/mL)
Mouse
  Liver Findings: No liver safety signal at Highest Dose tested
Rat HepatoPac
  urea (mito fx) / urea synthesis: lack of urea synthesis inhibition; also recorded: no effect on urea to 80 µM
Human HepatoPac [6]; 50 µM
  biliary excretion of taurocholic acid: no significant impact
Dog
  Liver Findings: Slight periportal vacuolation

## Cc1cnc(NC(=O)C2=C(O)c3ccccc3S(=O)(=O)N2C)s1 [Meloxicam]
Rat [2]
  tolerability of high repeat daily doses: not tolerated

## C/N=C(\S)NCCSCc1[nH]cnc1C [Metiamide]
[1]
  rat BA-LRA result: did not show a significant rat liver BA-LRA signal

## Cc1cc2c(s1)Nc1ccccc1N=C2N1CCN(C)CC1 [Olanzapine]
[1]
  BA-LRA outcome, day 1 single dose study: InsfT
Rat [2]
  tolerability of high repeat daily doses: not tolerated

## Cc1c(-c2cnccn2)ssc1=S [Oltipraz, oltipraz]
NRF2
  NRF2 activation with and without CYP450 expression: gave similar results

## COc1ccc2[nH]c([S+]([O-])Cc3ncc(C)c(OC)c3C)nc2c1 (stereo not drawn) [Omeprazole]
NRF2
  NRF2 activation with and without CYP450 expression: gave similar results

## C[S+]([O-])CCCCN=C=S (stereo not drawn) [Sulforaphane, sulforaphane]
NRF2
  NRF2 activation with and without CYP450 expression: gave similar results

## CNS(=O)(=O)Cc1ccc2[nH]cc(CCN(C)C)c2c1 [Sumatriptan]
Human hepatocytes
  covalent protein binding in human hepatocytes: high CPB

## Nc1c2c(nc3ccccc13)CCCC2 [Tacrine]
Rat [2]
  tolerability of high repeat daily doses: not tolerated

## O=C(N[C@@H]1CC[C@@H](c2cccc(F)c2F)CN(CC(F)(F)F)C1=O)N1CCC(n2c(=O)[nH]c3ncccc32)CC1 [Telcagepant]
Cyp3A4
  Cyp3A4 degradation: no effect was seen
BSEP
  synergy expected for a BSEP inhibitor: no evidence for synergy
HepG2
  mitochondrial toxicity: unlikely mechanism of concern
Rat [4]
  Liver Findings: No liver safety signal at Highest Dose tested
Human hepatocytes
  covalent protein binding in human hepatocytes: high covalent binding
Human HepatoPac [7]
  in vitro BA-LRA transcriptional response to CRM responsive genes: well exceeding the threshold of the assay
NHP
  Liver Findings: No liver safety signal at Highest Dose tested
[8]
  BA-LRA (in vitro): well exceeding the threshold of the assay
[8]; listed as MK-0974/Telcagepant
  BA-LRA (in vitro): > 0.2
[1]
  maximum daily dose (boundary) predicted from BA-LRA score: < 600 mg
[1]; 400 mkd × 4 days, peak score
  BA-LRA score: 0.30
Human HepatoPac [5]
  urea synthesis: no inhibition of urea synthesis
NRF2
  NRF2 activation: no effect was seen
[9]
  exposure multiple of BSEP IC50 above calculated free unbound liver inlet Cmax: 17.5 fold
Mouse
  Liver Findings: No liver safety signal at Highest Dose tested
Rat [2]
  tolerability of high repeat daily doses: poorly tolerated
Rat HepatoPac
  urea (mito fx) / urea synthesis: no inhibition of urea synthesis
Rat HepatoPac; listed as MK-0974/Telcagepant
  urea (mito fx) / urea synthesis: no effect on urea to 100 µM
Human HepatoPac [6]
  Biliary Excretion Index IC50: 16 µM

## Clc1ccccc1CN1CCc2sccc2C1 [Ticlopidine]
NRF2; 6 h
  NRF2 protein level in noninduced cells: not in noninduced cells
NRF2
  NRF2 protein level in cells expressing other CYP isoforms: no effects on the NRF2 protein level
NRF2; induced [+Dox] CYP2C9 expressing HEK293 cells, 6 h
  concentration at which NRF2 activation begins: approximately 25 µM

## C[C@@H]1[C@H](c2ccccc2)C[C@H](NC(=O)c2cnc3c(c2)C[C@@]2(C3)C(=O)Nc3ncccc32)C(=O)N1CC(F)(F)F [Ubrogepant]
patients; clinical trials
  clinical liver safety profile: superior clinical liver safety profile
